Experiment [1] deals with T1, Alpha-1A adrenergic receptor (Homo sapiens, UniProt P35348).
T1 sequence (P35348 whole entry): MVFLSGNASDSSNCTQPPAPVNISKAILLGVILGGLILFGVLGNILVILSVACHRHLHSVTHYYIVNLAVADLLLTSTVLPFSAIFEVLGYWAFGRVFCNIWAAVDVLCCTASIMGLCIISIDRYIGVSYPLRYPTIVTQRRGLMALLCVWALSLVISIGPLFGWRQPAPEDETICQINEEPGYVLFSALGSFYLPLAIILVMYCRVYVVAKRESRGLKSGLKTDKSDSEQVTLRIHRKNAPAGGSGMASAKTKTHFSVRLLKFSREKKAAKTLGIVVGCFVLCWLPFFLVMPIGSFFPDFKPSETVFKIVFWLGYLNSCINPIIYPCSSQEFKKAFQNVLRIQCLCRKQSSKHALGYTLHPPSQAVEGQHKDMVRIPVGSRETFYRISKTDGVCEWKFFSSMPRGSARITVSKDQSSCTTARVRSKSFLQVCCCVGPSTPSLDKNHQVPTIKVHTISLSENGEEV
Format: functional, cell-based.

For experiment [2], the target named is T2, Type-1 angiotensin II receptor (Homo sapiens, UniProt P30556).
T2 sequence (P30556 whole entry): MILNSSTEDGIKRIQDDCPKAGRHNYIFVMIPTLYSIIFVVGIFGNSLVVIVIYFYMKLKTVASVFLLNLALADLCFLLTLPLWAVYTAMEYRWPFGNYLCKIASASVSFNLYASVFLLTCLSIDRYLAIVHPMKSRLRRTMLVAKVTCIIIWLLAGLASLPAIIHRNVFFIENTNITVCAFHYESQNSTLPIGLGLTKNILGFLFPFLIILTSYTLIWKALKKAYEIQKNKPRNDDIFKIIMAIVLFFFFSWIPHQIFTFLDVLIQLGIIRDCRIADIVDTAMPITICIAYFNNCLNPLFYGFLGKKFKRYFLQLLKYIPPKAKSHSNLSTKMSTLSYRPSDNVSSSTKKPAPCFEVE

The next experiment concerns the target Histamine H3 receptor (Homo sapiens, UniProt Q9Y5N1).
Experiment [3] has as its target T1, Alpha-1A adrenergic receptor. Format: functional, cell-based. This is another data set of the same source.
The next experiment has as its target Cannabinoid receptor 1 (Homo sapiens, UniProt P21554). Format: functional, cell-based.
In experiment [4] the target is T3, Muscarinic acetylcholine receptor M2 (Homo sapiens, UniProt P08172).
T3 sequence (P08172 whole entry): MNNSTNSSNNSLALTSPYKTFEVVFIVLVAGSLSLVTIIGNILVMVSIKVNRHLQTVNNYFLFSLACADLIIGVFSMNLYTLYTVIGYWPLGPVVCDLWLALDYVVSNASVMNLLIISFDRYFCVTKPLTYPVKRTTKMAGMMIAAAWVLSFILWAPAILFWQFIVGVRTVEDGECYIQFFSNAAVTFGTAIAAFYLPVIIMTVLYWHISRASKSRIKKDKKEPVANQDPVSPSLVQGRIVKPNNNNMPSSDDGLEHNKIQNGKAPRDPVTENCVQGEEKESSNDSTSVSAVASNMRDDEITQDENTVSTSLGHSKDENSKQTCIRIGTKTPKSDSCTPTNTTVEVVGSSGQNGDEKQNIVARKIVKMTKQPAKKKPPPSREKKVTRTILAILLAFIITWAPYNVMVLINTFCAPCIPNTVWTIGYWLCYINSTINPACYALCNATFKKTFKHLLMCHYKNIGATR
It is filed as functional, cell-based.

Experiment [5] concerns the target T4, 5-hydroxytryptamine receptor 3A (Homo sapiens, UniProt P46098).
T4 sequence (P46098 whole entry): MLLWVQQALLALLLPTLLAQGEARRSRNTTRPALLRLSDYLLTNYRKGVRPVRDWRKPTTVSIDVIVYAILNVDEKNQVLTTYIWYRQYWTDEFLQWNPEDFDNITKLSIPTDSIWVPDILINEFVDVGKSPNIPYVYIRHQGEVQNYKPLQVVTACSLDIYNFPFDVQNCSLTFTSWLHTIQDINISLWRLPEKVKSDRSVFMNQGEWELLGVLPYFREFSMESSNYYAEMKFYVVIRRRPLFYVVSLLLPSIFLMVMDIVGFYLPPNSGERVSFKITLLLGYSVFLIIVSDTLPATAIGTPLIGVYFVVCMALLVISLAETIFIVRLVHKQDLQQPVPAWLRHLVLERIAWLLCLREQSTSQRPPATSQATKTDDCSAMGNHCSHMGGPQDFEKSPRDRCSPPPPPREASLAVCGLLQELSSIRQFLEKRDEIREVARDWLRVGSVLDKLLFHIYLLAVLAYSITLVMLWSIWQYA
Format: functional.

The target in experiment [6] is 3',5'-cyclic-AMP phosphodiesterase 4D (Homo sapiens, UniProt Q08499). Format: functional.
Sequence of 3',5'-cyclic-AMP phosphodiesterase 4D (Q08499 whole entry): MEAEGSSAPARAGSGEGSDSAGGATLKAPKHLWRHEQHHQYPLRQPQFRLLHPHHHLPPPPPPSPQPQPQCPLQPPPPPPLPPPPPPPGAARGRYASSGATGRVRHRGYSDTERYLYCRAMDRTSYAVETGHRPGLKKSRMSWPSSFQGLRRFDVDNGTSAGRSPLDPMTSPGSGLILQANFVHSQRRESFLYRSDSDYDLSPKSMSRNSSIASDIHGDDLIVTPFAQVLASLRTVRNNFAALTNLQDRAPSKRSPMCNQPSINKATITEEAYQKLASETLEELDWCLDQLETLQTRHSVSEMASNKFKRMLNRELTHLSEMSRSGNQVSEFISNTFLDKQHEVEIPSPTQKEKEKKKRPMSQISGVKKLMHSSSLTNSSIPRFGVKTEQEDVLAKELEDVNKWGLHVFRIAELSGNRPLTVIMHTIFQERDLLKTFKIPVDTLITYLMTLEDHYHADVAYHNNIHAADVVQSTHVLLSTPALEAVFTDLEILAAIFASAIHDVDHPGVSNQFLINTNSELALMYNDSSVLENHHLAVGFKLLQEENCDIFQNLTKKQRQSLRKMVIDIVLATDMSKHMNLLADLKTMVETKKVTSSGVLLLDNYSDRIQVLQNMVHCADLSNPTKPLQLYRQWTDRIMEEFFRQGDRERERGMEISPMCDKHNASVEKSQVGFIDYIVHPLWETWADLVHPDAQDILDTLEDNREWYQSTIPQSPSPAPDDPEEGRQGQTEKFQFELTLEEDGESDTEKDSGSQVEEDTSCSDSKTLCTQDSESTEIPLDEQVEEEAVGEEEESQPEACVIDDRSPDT
The next experiment deals with Vasopressin V1a receptor (Homo sapiens, UniProt P37288).
Sequence of Vasopressin V1a receptor (P37288 whole entry): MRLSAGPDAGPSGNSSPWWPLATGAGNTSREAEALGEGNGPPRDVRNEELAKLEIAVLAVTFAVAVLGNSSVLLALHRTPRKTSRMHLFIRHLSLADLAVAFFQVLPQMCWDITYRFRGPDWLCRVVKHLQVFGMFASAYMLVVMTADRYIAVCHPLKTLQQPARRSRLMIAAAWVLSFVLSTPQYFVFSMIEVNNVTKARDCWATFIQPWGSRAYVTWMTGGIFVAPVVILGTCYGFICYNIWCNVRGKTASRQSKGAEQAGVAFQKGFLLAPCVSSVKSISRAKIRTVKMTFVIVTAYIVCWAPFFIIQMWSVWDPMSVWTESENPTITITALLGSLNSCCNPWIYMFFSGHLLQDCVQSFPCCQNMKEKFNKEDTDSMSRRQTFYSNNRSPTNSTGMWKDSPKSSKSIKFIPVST
Experiment [7] addresses Neuronal acetylcholine receptor subunit alpha-4 (Homo sapiens, UniProt P43681).
In experiment [8] the target is Gamma-aminobutyric acid receptor subunit alpha-1 (Rattus norvegicus, UniProt P62813). It is filed as functional.
Sequence of Gamma-aminobutyric acid receptor subunit alpha-1 (P62813 whole entry): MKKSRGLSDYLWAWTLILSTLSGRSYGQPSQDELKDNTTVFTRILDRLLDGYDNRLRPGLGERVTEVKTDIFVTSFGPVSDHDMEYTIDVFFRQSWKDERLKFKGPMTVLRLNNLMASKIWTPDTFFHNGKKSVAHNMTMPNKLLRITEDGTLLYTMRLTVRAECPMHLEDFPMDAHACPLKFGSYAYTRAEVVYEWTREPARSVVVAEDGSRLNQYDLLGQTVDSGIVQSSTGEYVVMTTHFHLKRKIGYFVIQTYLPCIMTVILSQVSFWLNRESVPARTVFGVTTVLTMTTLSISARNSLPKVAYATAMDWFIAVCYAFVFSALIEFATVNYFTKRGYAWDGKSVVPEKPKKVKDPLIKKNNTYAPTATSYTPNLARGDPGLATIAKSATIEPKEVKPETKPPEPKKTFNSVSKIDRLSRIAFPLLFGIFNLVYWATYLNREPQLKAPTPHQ
Experiment [9] deals with Beta-2 adrenergic receptor (Homo sapiens, UniProt P07550). Format: functional, cell-based.
Sequence of Beta-2 adrenergic receptor (P07550 whole entry): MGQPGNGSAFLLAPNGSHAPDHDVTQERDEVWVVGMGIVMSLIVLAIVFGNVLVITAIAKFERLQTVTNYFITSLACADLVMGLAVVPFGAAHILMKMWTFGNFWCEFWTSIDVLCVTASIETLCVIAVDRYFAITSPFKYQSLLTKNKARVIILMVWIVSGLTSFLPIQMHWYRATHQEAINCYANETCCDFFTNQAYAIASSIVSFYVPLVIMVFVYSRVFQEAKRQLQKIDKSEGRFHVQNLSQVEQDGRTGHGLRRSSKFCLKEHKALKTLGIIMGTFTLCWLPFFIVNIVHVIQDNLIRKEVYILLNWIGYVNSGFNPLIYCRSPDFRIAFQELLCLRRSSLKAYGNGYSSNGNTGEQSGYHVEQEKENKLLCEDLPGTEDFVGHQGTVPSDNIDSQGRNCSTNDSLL
A further experiment concerns the target T5, Endothelin-1 receptor (Homo sapiens, UniProt P25101).
T5 sequence (P25101 whole entry): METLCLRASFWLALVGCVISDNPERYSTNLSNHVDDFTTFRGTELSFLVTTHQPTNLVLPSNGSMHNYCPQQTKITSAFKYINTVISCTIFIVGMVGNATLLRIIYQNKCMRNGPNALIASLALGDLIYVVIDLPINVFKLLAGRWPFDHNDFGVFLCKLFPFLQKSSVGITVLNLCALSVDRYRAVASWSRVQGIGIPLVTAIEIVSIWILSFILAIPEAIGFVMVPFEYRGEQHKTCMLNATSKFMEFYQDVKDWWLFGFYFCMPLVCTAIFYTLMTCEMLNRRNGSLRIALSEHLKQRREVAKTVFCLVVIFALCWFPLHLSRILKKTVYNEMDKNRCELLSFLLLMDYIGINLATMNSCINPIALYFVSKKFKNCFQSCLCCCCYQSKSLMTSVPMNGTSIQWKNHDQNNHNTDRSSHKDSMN

A value given as a limit tells only on which side of the number the result lay.

This note sets out measurements from ChEMBL document CHEMBL5291721, “A preclinical secondary pharmacology resource illuminates target-adverse drug reaction associations of marketed drugs” (Nat Commun, 2023).
Note: assay procedure not described here.

Sequence of Neuronal acetylcholine receptor subunit alpha-4 (P43681 whole entry): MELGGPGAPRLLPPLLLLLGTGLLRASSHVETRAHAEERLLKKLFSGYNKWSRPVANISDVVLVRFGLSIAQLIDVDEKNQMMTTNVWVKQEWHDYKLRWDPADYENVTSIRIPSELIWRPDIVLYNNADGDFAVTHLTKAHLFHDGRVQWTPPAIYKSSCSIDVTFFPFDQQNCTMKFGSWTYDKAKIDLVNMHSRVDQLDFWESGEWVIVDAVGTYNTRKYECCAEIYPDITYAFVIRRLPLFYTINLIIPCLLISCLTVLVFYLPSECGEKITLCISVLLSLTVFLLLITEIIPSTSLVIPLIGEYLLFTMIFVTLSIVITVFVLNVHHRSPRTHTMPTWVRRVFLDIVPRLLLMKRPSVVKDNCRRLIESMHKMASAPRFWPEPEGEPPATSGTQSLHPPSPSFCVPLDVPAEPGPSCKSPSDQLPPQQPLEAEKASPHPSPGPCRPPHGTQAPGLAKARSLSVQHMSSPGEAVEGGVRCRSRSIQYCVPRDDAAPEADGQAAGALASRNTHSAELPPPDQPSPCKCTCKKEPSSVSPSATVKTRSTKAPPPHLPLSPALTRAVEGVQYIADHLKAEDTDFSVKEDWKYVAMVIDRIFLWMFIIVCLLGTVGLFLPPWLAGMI
Sequence of Histamine H3 receptor (Q9Y5N1 whole entry): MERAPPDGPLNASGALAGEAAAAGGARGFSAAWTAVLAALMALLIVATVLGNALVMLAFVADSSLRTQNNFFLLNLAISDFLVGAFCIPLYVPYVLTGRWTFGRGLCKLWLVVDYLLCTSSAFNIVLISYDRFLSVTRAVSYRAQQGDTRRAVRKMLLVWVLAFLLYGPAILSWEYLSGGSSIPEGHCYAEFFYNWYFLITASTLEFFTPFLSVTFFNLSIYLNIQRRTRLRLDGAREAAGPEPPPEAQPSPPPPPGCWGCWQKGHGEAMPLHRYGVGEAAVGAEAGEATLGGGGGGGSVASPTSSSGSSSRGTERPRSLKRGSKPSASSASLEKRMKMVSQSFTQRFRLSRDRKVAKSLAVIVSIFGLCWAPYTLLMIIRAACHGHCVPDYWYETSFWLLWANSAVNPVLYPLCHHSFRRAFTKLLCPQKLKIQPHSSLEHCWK
Sequence of Cannabinoid receptor 1 (P21554 whole entry): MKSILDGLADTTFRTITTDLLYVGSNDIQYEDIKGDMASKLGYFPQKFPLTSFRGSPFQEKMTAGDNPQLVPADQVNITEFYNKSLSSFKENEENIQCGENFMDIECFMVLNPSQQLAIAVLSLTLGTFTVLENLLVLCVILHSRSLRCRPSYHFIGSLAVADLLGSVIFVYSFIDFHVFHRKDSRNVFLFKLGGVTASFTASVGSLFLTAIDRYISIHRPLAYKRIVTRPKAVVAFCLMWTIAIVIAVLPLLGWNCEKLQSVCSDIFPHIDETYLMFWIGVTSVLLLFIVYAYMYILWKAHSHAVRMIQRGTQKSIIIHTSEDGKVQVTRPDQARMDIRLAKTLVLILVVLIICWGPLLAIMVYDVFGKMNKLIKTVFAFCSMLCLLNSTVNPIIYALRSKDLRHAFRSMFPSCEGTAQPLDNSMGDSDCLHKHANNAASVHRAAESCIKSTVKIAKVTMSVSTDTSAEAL

Take `C[C@H]1c2cccc(O)c2C(=O)C2=C(O)[C@]3(O)C(=O)C(C(N)=O)=C(O)[C@@H](N(C)C)[C@@H]3[C@@H](O)[C@@H]21` [DOXYCYCLINE]: the half-maximal activity concentration (AC50) in [1] was more than 30 µM; in [2], more than 30 µM; on Histamine H3 receptor it was more than 10 µM; in experiment [3], more than 30 µM; at Cannabinoid receptor 1 it was more than 30 µM; in experiment [4], more than 10 µM. For the same compound, the half-maximal activity concentration (AC50) in [5] was more than 30 µM; in [6], more than 30 µM; on Vasopressin V1a receptor it was more than 10 µM; in [7], more than 10 µM; in [8], more than 10 µM; in [9], more than 30 µM. Moreover, at Endothelin-1 receptor, the concentration at half-maximal activity (AC50) is more than 30 µM.
Consider `CN(C)CCc1c[nH]c2ccc(Cn3cncn3)cc12` [RIZATRIPTAN], for which the AC50 was more than 30 µM in [1]; more than 30 µM in experiment [2]; more than 10 µM at Histamine H3 receptor; more than 30 µM in experiment [3]; more than 30 µM at Cannabinoid receptor 1; more than 30 µM in [4]. Also, the AC50 was more than 30 µM in experiment [5]; more than 30 µM in experiment [6]; more than 10 µM on Vasopressin V1a receptor; more than 10 µM in experiment [7]; more than 30 µM in experiment [8]; more than 30 µM in experiment [9]. Further, the AC50 on Endothelin-1 receptor was more than 30 µM.
`CC(C)c1nc(N(C)S(C)(=O)=O)nc(-c2ccc(F)cc2)c1/C=C/[C@@H](O)C[C@@H](O)CC(=O)O` [ROSUVASTATIN]: the AC50 (in [1]; in experiment [2]; on Histamine H3 receptor; in [3]; at Cannabinoid receptor 1; in experiment [4]) was more than 30 µM in each case. Moreover, the AC50 in [5] was more than 30 µM; in experiment [6], 4.16 µM; on Vasopressin V1a receptor, more than 30 µM; in experiment [7], more than 30 µM; in [8], more than 30 µM; in experiment [9] it was more than 30 µM. In addition, on Endothelin-1 receptor, the concentration at half-maximal activity (AC50) was more than 30 µM.
For `N[C@@H](CC(=O)N1CCn2c(nnc2C(F)(F)F)C1)Cc1cc(F)c(F)cc1F` [SITAGLIPTIN], the AC50 (in [1]; in experiment [2]; on Histamine H3 receptor; in [3]; at Cannabinoid receptor 1; in experiment [4]) was more than 30 µM throughout. The concentration at half-maximal activity (AC50) (in experiment [5]; in experiment [6]; at Vasopressin V1a receptor; in [7]; in experiment [8]; in [9]) was more than 30 µM throughout. This compound also came in with a half-maximal activity concentration (AC50) on Endothelin-1 receptor of more than 30 µM.
On to `OC[C@H]1O[C@@](CO)(O[C@H]2O[C@H](CO)[C@@H](O)[C@H](O)[C@H]2O)[C@@H](O)[C@@H]1O` [SUCROSE], for which the concentration at half-maximal activity (AC50) (in experiment [1]; in experiment [2]; at Histamine H3 receptor; in [3]; at Cannabinoid receptor 1; in experiment [4]) was more than 30 µM throughout. Also, the AC50 (in [5]; in experiment [6]; on Vasopressin V1a receptor; in [7]; in experiment [8]; in experiment [9]) was more than 30 µM throughout. Also, the AC50 on Endothelin-1 receptor was more than 30 µM.
As for `Nc1ccc(S(=O)(=O)Nc2nccs2)cc1` [SULFATHIAZOLE], the AC50 is more than 30 µM in experiment [1]; more than 30 µM in [2]; more than 10 µM on Histamine H3 receptor; more than 30 µM in [3]; more than 30 µM at Cannabinoid receptor 1; more than 10 µM in [4]. For the same compound, the half-maximal activity concentration (AC50) was more than 30 µM in experiment [5]; more than 30 µM in experiment [6]; more than 10 µM at Vasopressin V1a receptor; more than 10 µM in [7]; more than 10 µM in [8]; more than 30 µM in [9]. At Endothelin-1 receptor, this compound showed an AC50 of more than 30 µM.

In general, AC50 refers to the concentration giving half of the maximal activity seen. Lower therefore signals activity at low concentration.
